Reference: ChEMBL document CHEMBL2413039, “Novel N-hydroxyfurylacrylamide-based histone deacetylase (HDAC) inhibitors with branched CAP group (Part 2)” (Bioorg Med Chem, 2013)

What was measured:
HCT-116 = experiment: cells; type: functional, cell-based; conditions: Homo sapiens, HCT-116, 48 h
Histone deacetylase = type: protein assay, Homo sapiens; conditions: hela
HepG2 = experiment: cells; type: functional, cell-based; conditions: Homo sapiens, HepG2, 48 h
A549 = experiment: cells; type: functional, cell-based; conditions: Homo sapiens, A549, 48 h
PC-3 = experiment: cells; type: functional, cell-based; conditions: Homo sapiens, PC-3, 48 h
Histone deacetylase 1 = Histone deacetylase 1 (Homo sapiens, UniProt Q13547); experiment: Inhibition of human recombinant HDAC1 using p53 residues 379-382 (RHKKAc) as substrate
Sequence of Histone deacetylase 1 (Q13547 whole entry, the tested form may be a part): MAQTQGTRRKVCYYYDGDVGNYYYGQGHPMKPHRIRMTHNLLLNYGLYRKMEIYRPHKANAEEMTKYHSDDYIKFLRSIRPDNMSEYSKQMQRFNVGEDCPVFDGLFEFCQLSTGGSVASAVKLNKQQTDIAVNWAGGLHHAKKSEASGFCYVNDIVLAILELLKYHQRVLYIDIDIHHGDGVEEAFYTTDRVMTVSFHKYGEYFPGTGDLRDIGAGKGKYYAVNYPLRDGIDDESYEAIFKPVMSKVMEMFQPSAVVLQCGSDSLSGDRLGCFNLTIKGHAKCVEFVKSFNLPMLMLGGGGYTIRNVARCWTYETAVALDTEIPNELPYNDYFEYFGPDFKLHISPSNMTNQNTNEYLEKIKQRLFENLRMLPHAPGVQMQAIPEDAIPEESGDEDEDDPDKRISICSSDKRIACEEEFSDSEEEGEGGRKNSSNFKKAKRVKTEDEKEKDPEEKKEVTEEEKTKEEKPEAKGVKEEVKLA

[1] = biological target: T1, Protein deacetylase HDAC6 (Homo sapiens, UniProt Q9UBN7)
T1 sequence (Q9UBN7 whole entry): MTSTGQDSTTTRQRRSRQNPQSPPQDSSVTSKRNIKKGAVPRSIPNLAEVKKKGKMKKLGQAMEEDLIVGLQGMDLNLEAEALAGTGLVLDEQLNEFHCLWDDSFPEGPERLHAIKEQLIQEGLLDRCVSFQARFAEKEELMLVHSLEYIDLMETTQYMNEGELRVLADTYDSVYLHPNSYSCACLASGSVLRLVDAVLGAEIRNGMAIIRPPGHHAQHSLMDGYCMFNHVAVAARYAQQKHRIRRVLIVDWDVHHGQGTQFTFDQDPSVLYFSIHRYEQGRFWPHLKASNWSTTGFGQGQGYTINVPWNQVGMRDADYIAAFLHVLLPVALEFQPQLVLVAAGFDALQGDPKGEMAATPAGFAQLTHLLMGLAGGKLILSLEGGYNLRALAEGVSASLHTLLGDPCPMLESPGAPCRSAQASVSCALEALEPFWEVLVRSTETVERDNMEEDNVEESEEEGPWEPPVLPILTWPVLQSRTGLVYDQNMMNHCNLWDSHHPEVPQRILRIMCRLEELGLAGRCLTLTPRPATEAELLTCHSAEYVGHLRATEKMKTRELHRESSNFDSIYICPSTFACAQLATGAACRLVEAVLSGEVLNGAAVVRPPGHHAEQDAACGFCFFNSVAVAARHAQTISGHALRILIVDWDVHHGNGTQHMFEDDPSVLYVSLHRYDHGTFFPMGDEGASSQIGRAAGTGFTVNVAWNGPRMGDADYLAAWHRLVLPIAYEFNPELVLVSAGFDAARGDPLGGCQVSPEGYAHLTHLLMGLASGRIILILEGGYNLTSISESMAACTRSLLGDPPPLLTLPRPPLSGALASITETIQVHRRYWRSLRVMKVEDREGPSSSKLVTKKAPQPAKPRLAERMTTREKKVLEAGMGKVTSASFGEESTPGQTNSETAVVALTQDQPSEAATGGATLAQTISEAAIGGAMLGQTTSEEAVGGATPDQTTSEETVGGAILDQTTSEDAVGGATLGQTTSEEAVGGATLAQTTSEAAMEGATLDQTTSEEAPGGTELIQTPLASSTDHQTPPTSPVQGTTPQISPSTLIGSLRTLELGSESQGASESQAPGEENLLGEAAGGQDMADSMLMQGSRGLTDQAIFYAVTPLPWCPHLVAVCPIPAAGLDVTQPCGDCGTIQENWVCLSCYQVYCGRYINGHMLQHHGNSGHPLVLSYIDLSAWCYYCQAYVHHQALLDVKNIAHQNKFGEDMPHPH

Homo sapiens [2] = species: Homo sapiens; experiment: Selectivity ratio of IC50 for human recombinant HDAC1 to human recombinant HDAC6
Histone deacetylase 4 = Histone deacetylase 4 (Homo sapiens, UniProt P56524); experiment: Inhibition of human recombinant HDAC4 using p53 residues 379-382 (RHKKAc) as substrate
Sequence of Histone deacetylase 4 (P56524 whole entry, the tested form may be a part): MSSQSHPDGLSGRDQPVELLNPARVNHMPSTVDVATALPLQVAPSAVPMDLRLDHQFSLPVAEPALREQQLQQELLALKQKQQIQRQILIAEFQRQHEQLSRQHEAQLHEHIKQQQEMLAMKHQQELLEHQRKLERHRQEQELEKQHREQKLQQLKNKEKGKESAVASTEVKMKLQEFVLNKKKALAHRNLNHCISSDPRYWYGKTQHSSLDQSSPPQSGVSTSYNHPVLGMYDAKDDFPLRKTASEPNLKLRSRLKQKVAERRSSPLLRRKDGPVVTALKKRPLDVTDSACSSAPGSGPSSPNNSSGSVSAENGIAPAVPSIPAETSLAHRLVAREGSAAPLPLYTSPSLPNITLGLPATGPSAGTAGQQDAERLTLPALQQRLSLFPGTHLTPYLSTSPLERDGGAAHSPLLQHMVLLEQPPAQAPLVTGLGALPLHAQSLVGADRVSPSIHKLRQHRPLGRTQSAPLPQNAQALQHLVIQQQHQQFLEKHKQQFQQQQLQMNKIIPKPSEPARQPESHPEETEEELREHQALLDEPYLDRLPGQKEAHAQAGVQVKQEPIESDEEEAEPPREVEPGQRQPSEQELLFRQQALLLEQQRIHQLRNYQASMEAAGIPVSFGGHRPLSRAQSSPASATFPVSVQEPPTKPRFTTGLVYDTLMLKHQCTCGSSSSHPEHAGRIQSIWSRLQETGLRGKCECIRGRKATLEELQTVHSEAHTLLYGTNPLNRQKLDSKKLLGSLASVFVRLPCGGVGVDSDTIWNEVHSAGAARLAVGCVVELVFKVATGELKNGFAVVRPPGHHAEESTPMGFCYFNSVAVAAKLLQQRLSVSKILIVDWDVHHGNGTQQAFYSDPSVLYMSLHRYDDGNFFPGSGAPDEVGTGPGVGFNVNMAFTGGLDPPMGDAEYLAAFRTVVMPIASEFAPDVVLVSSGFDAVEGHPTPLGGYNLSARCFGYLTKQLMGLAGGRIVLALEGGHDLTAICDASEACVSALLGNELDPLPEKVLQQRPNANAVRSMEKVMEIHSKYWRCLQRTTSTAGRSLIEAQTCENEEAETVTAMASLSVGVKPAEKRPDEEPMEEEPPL

Homo sapiens [3] = species: Homo sapiens; experiment: Selectivity ratio of IC50 for human recombinant HDAC4 to human recombinant HDAC6

EC50 (HCT-116)	IC50 (Histone deacetylase)	EC50 (HepG2)	EC50 (A549)	EC50 (PC-3)	IC50 (Histone deacetylase 1)	IC50 [1]	Ratio IC50 (Homo sapiens [2])	IC50 (Histone deacetylase 4)	Ratio IC50 (Homo sapiens [3])	Compound
9.53 µM	1.21 µM	18.1 µM	26.4 µM	15.9 µM	–	–	–	–	–	O=C(/C=C/c1ccc(CN(CCOc2ccccc2)Cc2ccc(-c3ccccc3)cc2)o1)NO
6.93 µM	1.71 µM	19.4 µM	23 µM	18.8 µM	4.09 µM	1.14 µM	3.59	9.07 µM	7.95	Cc1ccc(OCCN(Cc2ccc(-c3ccccc3)cc2)Cc2ccc(/C=C/C(=O)NO)o2)cc1
69.5 µM	0.4 µM	105 µM	87.9 µM	92.5 µM	–	–	–	–	–	O=C(/C=C/c1ccc(CN(CCO)CCc2ccc3c(c2)OCO3)o1)NO
35.9 µM	1.57 µM	97.7 µM	46.8 µM	15.5 µM	–	–	–	–	–	O=C(/C=C/c1ccc(CN(CCCCOc2ccccc2)CCc2ccc3c(c2)OCO3)o1)NO
7.24 µM	1.48 µM	15 µM	25.8 µM	44.9 µM	6.48 µM	0.79 µM	8.21	12.3 µM	15.6	O=C(/C=C/c1ccc(CN(CCCOc2ccccc2)Cc2ccccc2)o1)NO
30.6 µM	2.36 µM	68.3 µM	37.4 µM	23.7 µM	–	–	–	–	–	O=C(/C=C/c1ccc(CN(CCOc2ccccc2)CCc2ccc3c(c2)OCO3)o1)NO
2.22 µM	1.66 µM	11.7 µM	11.5 µM	18.1 µM	–	–	–	–	–	Cc1ccc(OCCCN(Cc2ccc(-c3ccccc3)cc2)Cc2ccc(/C=C/C(=O)NO)o2)cc1
2.05 µM	> 2.07 µM	12.7 µM	16.6 µM	25.2 µM	–	–	–	–	–	O=C(/C=C/c1ccc(CN(CCCOc2ccccc2)Cc2ccc(-c3ccccc3)cc2)o1)NO
8.23 µM	> 2.39 µM	19.7 µM	14.7 µM	13.4 µM	–	–	–	–	–	CCCCCN(Cc1ccc(-c2ccccc2)cc1)Cc1ccc(/C=C/C(=O)NO)o1
26.3 µM	3.17 µM	27.7 µM	20.5 µM	18.8 µM	20.6 µM	1.1 µM	18.7	12.3 µM	11.2	CC(C)CN(Cc1ccccc1)Cc1ccc(/C=C/C(=O)NO)o1
20.1 µM	> 2.55 µM	44.7 µM	52.3 µM	> 128 µM	20.2 µM	1.93 µM	10.5	50.6 µM	26.2	O=C(/C=C/c1ccc(CN(CCOc2ccccc2)Cc2ccccc2)o1)NO
37.2 µM	> 2.22 µM	110 µM	16.3 µM	18.8 µM	–	–	–	–	–	O=C(/C=C/c1ccc(CN(CCCOc2ccccc2)CCc2ccc3c(c2)OCO3)o1)NO
5.62 µM	1.31 µM	16.3 µM	9.82 µM	15.7 µM	4.73 µM	0.55 µM	8.63	12.6 µM	23.1	Cc1ccc(OCCCCN(Cc2ccccc2)Cc2ccc(/C=C/C(=O)NO)o2)cc1
8.96 µM	2.65 µM	21.8 µM	11 µM	23.8 µM	–	–	–	–	–	CCCCCCN(Cc1ccccc1)Cc1ccc(/C=C/C(=O)NO)o1
74.8 µM	3.49 µM	65.3 µM	72.5 µM	37.1 µM	–	–	–	–	–	CCCCCN(CCc1ccc2c(c1)OCO2)Cc1ccc(/C=C/C(=O)NO)o1
91.4 µM	2.28 µM	73.2 µM	35.4 µM	34.5 µM	–	–	–	–	–	O=C(/C=C/c1ccc(CN(CCc2ccc3c(c2)OCO3)Cc2ccccc2)o1)NO

EC50 (HCT-116)	IC50 (Histone deacetylase)	EC50 (HepG2)	EC50 (A549)	EC50 (PC-3)	IC50 (Histone deacetylase 1)	IC50 [1]	Ratio IC50 (Homo sapiens [2])	IC50 (Histone deacetylase 4)	Ratio IC50 (Homo sapiens [3])	Compound
14.8 µM	1.87 µM	13 µM	52.6 µM	51.7 µM	31.4 µM	3.13 µM	10	68.1 µM	21.8	Cc1ccc(OCCN(Cc2ccccc2)Cc2ccc(/C=C/C(=O)NO)o2)cc1
15.9 µM	1.59 µM	28.7 µM	50.6 µM	7.57 µM	–	–	–	–	–	CCCN(CCc1ccc2c(c1)OCO2)Cc1ccc(/C=C/C(=O)NO)o1
2.76 µM	> 1.96 µM	15.9 µM	15.6 µM	37.6 µM	–	–	–	–	–	Cc1ccc(OCCCCN(Cc2ccc(-c3ccccc3)cc2)Cc2ccc(/C=C/C(=O)NO)o2)cc1
1.84 µM	1.25 µM	12.8 µM	8.4 µM	67.9 µM	3.42 µM	0.83 µM	4.11	5.72 µM	6.87	CCN(Cc1ccc(-c2ccccc2)cc1)Cc1ccc(/C=C/C(=O)NO)o1
22.7 µM	0.18 µM	67.5 µM	34.5 µM	26.9 µM	2.37 µM	0.34 µM	6.94	3.96 µM	11.6	CC(C)N(Cc1ccccc1)Cc1ccc(/C=C/C(=O)NO)o1
17 µM	> 2.69 µM	54.3 µM	78.2 µM	33.2 µM	–	–	–	–	–	CCCCN(CCc1ccc2c(c1)OCO2)Cc1ccc(/C=C/C(=O)NO)o1
2.76 µM	> 2.02 µM	32.9 µM	22.4 µM	23.6 µM	–	–	–	–	–	O=C(/C=C/c1ccc(CN(CCCCOc2ccccc2)Cc2ccc(-c3ccccc3)cc2)o1)NO
6.02 µM	2.54 µM	5.95 µM	7.95 µM	42.2 µM	9.66 µM	0.93 µM	10.4	13.2 µM	14.2	Cc1ccc(OCCCN(Cc2ccccc2)Cc2ccc(/C=C/C(=O)NO)o2)cc1
66 µM	2.31 µM	81.7 µM	84.7 µM	66.5 µM	7.88 µM	0.48 µM	16.6	20 µM	41.9	CCN(CCc1ccc2c(c1)OCO2)Cc1ccc(/C=C/C(=O)NO)o1
9.01 µM	> 2.55 µM	66.6 µM	69.8 µM	14.3 µM	–	–	–	–	–	O=C(/C=C/c1ccc(CN(Cc2ccccc2)Cc2ccc(-c3ccccc3)cc2)o1)NO
10.4 µM	> 2.17 µM	36.9 µM	28.8 µM	36.8 µM	–	–	–	–	–	CCCCCCCCN(Cc1ccc(-c2ccccc2)cc1)Cc1ccc(/C=C/C(=O)NO)o1
–	–	–	–	–	–	–	7	–	–	O=C(CCCCCCC(=O)Nc1ccc([C@H]2O[C@@H](CSc3nc(-c4ccccc4)c(-c4ccccc4)o3)C[C@@H](c3ccc(CO)cc3)O2)cc1)NO
17.1 µM	> 2.69 µM	38 µM	39.3 µM	16.1 µM	–	–	–	–	–	CC(C)CN(CCc1ccc2c(c1)OCO2)Cc1ccc(/C=C/C(=O)NO)o1
2.74 µM	1.61 µM	15.5 µM	15.6 µM	24.2 µM	–	–	–	–	–	CC(C)N(Cc1ccc(-c2ccccc2)cc1)Cc1ccc(/C=C/C(=O)NO)o1
6.43 µM	2.12 µM	14.7 µM	10.6 µM	35.9 µM	–	–	–	–	–	O=C(/C=C/c1ccc(CN(CCCCOc2ccccc2)Cc2ccccc2)o1)NO
